Assay [1] relates to Klebsiella pneumoniae. The experiment in a line: MIC, compound in combination with a second agent (broth microdilution). The assay is classed as cell-based. The conditions noted are these: 1:1 (wt:wt) combination with Rifampicin. On the procedure:
(§1) To evaluate the potency and spectrum of the compounds both alone and in combination with another agent, susceptibility testing was performed against up to four strains of each of the four Gram negative pathogens, Escherichia coli, Pseudomonas aeruginosa, Klebsiella pneumoniae and Acinetobacter baumannii.
(§2) Ratios of components in a combination, such as 1:1, refers to a weight to weight ratio. The minimum inhibitory concentration (MIC) refers to the total drug concentration (e.g. test compound plus second agent, such as Rifampicin).
(§3) The inoculum was prepared by making a direct suspension of isolated colonies (selected from an 18-24 hour Mueller-Hinton agar plate) adjusted to the 0.5 McFarland standard.
(§4) The assays were performed in duplicate.
(§5) In cases where the duplicate values varied by less than 2-fold, the lower of the two values is reported. If a variation of greater than 2-fold was observed, the assay was considered non-valid. Several of the compounds were subjected to multiple tests, and where this is the case, the MIC reflects the modal value obtained.
(§6) The minimum inhibitory concentration refers to the total drug concentration (e.g. test compound plus Rifampicin). The compounds are used at equal mass within the combination. The weight refers to the mass of compound as used, for example the Example Compounds are used in their TFA or sulphate salt forms.
(§7) MICs refer to the total drug concentration. Thus, where a 1:1 combination is used, this is the amount of the test compound plus the second agent. For comparison, the MIC values for the second agent alone are also given.
For orientation: Broth dilution looks for growth in wells or tubes with falling amounts of substance.

Assay [2] concerns Pseudomonas aeruginosa. The assay is described as above. The assay is classed as cell-based. The conditions noted are these: 1:1 (wt:wt) combination with Rifampicin. On the procedure:
as §1, §2, §3, §4, §5, §6, §7

Where [3] appears, read: MIC = total drug concentration, strain ATCC-BAA-2146.
[4] abbreviates: MIC = total drug concentration, strain CCUG-59348.
[5] abbreviates: MIC = total drug concentration, strain NCTC 13438.
The mark [6] stands for this setting: MIC is total drug concentration.
[7] abbreviates: MIC = total drug concentration, strain CCUG 59626.

The values below come from patent US10407467B2, “Polymyxin derivatives and their use in combination therapy together with different antibiotics” (priority 2013, dated 2019).

Structures can show the parent of a compound that is named as a salt. Numbered stars: 1 amine (or outer) side, 2 acyl side, 3 side chain; on linkers, the order of the positions; unused ones are H or OH. Bridge positions count the residues as written; N and C are the ends. Square brackets hold non-standard residues; d marks the D form. Peptide text beside a SMILES is read from it. * marks the point of attachment. ξ: configuration not given here. X25 = CC(O)[C@@H](C(=O)[*:2])N(CCC1(N)CCCCC1)[*:1]; Hyp = O=C(O)[C@@H]1C[C@@H](O)CN1; X24 = O=C(CCN1CCS(=O)(=O)CC1)*; Thr(3ξ) = CC(O)[C@H](N)C(=O)O; Chg = N[C@H](C(=O)O)C1CCCCC1; 4Abz = Nc1ccc(C(=O)O)cc1; Dab = NCC[C@H](N)C(=O)O

With `CC(C)C[C@@H]1NC(=O)[C@@H](Cc2ccccc2)NC(=O)[C@H](CCN)NC(=O)[C@@H](NC(=O)[C@H](CCN)NC(=O)[C@@H](NC(=O)c2ccc(N)cc2)C(C)O)CCNC(=O)[C@H](C(C)O)NC(=O)[C@H](CCN)NC(=O)[C@H](CCN)NC1=O` (stereo partly shown) [Example 5, 4-Aminobenzoyl polymyxin B nonapeptide] (H-[4Abz][Thr(3ξ)][Dab][Dab][Dab][dF]L[Dab][Dab][Thr(3ξ)]; lactam 4-C), the “MIC K. pneumoniae ATCC-BAA-2146” value in assay [1] (setting [3]) and in assay [1] (setting [6]) was 1 micrograms/mL throughout. Further, the “MIC K. pneumoniae CCUG-59348” value in assay [1] (setting [4]) and in assay [1] (setting [6]) was 2 micrograms/mL in each case. For the same compound, the “MIC K. pneumoniae NCTC 13438” value in assay [1] (setting [5]) and in assay [1] (setting [6]) was 1 micrograms/mL each time. In addition, the “MIC P. aeruginosa CCUG 59626” value in assay [2] (setting [7]) and in assay [2] (setting [6]) was 0.25 micrograms/mL throughout.
As to `CC(C)C[C@@H]1NC(=O)[C@@H](Cc2ccccc2)NC(=O)[C@H](CCN)NC(=O)[C@@H](NC(=O)[C@H](CCN)NC(=O)[C@@H](NC(=O)CCN2CCS(=O)(=O)CC2)C(C)O)CCNC(=O)[C@H](C(C)O)NC(=O)[C@H](CCN)NC(=O)[C@H](CCN)NC1=O` (stereo partly shown) [Example 12, 3-(1,1-dioxo-thiomorpholine-4-yl)propanoyl Polymyxin B nonapeptide] (X24-[Thr(3ξ)][Dab][Dab][Dab][dF]L[Dab][Dab][Thr(3ξ)]; lactam 3-C), the “MIC K. pneumoniae ATCC-BAA-2146” value in assay [1] (setting [3]) was 4 micrograms/mL. Also, in assay [1] (setting [4]), the “MIC K. pneumoniae CCUG-59348” value came to 16 micrograms/mL. The “MIC K. pneumoniae NCTC 13438” value in assay [1] (setting [5]) is on record as 4 micrograms/mL. Also, in assay [2] (setting [7]), the “MIC P. aeruginosa CCUG 59626” value came out at 0.5 micrograms/mL.
Turning to `CC(C)C[C@@H]1NC(=O)[C@@H](Cc2ccccc2)NC(=O)[C@H](CCN)NC(=O)[C@@H](NC(=O)[C@H](CCN)NC(=O)[C@@H](NC(=O)[C@@H]2C[C@@H](O)CN2)C(C)O)CCNC(=O)[C@H](C(C)O)NC(=O)[C@H](CCN)NC(=O)[C@H](CCN)NC1=O` (stereo partly drawn) [Example 35, (2S,4R)-4-Hydroxy-2-pyrrolidine carbonyl polymyxin B nonapeptide, trifluoroacetate salt] (H-[Hyp][Thr(3ξ)][Dab][Dab][Dab][dF]L[Dab][Dab][Thr(3ξ)]; lactam 4-C), in assay [1] (setting [3]), the “MIC K. pneumoniae ATCC-BAA-2146” value is 4 micrograms/mL. Moreover, the “MIC K. pneumoniae CCUG-59348” value in assay [1] (setting [4]) came out at 16 micrograms/mL. Also, the “MIC K. pneumoniae NCTC 13438” value in assay [1] (setting [5]) turned out to be 4 micrograms/mL. Moreover, the “MIC P. aeruginosa CCUG 59626” value in assay [2] (setting [7]) stood at 0.5 micrograms/mL.
In the case of `CC(C)C[C@@H]1NC(=O)[C@@H](Cc2ccccc2)NC(=O)[C@H](CCN)NC(=O)[C@@H](NC(=O)[C@H](CCN)NC(=O)[C@@H](NC(=O)[C@@H](N)C2CCCCC2)C(C)O)CCNC(=O)[C@H](C(C)O)NC(=O)[C@H](CCN)NC(=O)[C@H](CCN)NC1=O` (stereo partly drawn) [Example 40, 2-(S)-(2-amino-2-cyclohexyl)ethanoyl polymyxin B nonapeptide, trifluoroacetate salt] (H-[Chg][Thr(3ξ)][Dab][Dab][Dab][dF]L[Dab][Dab][Thr(3ξ)]; lactam 4-C), the “MIC K. pneumoniae ATCC-BAA-2146” value in assay [1] (setting [3]) stood at 2 micrograms/mL. The “MIC K. pneumoniae CCUG-59348” value in assay [1] (setting [4]) is 8 micrograms/mL. In assay [2] (setting [7]), the “MIC P. aeruginosa CCUG 59626” value is 0.5 micrograms/mL.
For `CC(C)C[C@@H]1NC(=O)[C@@H](Cc2ccccc2)NC(=O)[C@H](CCN)NC(=O)[C@@H](NC(=O)[C@H](CCN)NC(=O)[C@@H](NCCC2(N)CCCCC2)C(C)O)CCNC(=O)[C@H](C(C)O)NC(=O)[C@H](CCN)NC(=O)[C@H](CCN)NC1=O` (stereo partly shown) [Example 49, N-[2-(1-aminocyclohexyl)ethyl] Polymyxin B nonapeptide] (H-[X25][Dab][Dab][Dab][dF]L[Dab][Dab][Thr(3ξ)]; lactam 3-C), the “MIC K. pneumoniae ATCC-BAA-2146” value in assay [1] (setting [3]) was found to be 2 micrograms/mL. The “MIC K. pneumoniae CCUG-59348” value in assay [1] (setting [4]) was determined as 8 micrograms/mL. Besides, the “MIC P. aeruginosa CCUG 59626” value in assay [2] (setting [7]) worked out at 0.25 micrograms/mL.
